From US20250213587A1, “ITK INHIBITORS FOR INCREASING TH1 CELL ACTIVITY” (Corvus Pharmaceuticals, Inc., priority 2022, published 2025)

How the values were obtained:
Fyn = Fyn (Homo sapiens, UniProt P06241); experiment: Human kinome profiling at 1.0 μM, Fyn; assay type: biochemical; details: read-out: percent control, Fyn
PLCγ1 phosphorylation = experiment: Inhibition of PLCγ1 phosphorylation in Jurkat cells; assay type: cell-based, human; details: anti-CD3
Description: Jurkat human acute T cell leukemia cell line (ATCC, TIB-152) was cultured in RPMI 1640 medium supplemented with Penicillin-Streptomycin (Gibco) and 10% fetal bovine serum (FBS) at 37° C. and 5% CO2. […] The cell pellet was resuspended in NP40 lysis buffer (Invitrogen) containing protease and phosphatase inhibitors cocktail (Cell Signaling Technology), incubated for 30 minutes on ice, and centrifuged at 15, 000×g for 10 minutes. The lysate supernatant from each condition containing 50 μg of total protein was resolved on an 8% Bis-Tris gel (Invitrogen) under reducing condition and transferred onto a nitrocellulose membrane (Invitrogen) using an iBlot2 gel transfer device. Unless specified otherwise, all reagents described above were purchased from Thermo Fisher Scientific. Membranes were blocked for 1 hour at room temperature and incubated overnight at 4° C. with primary antibodies (1:1000 dilution) in Odyssey blocking buffer (LI-COR) with 0.2% Tween 20. Membranes were washed 4 times (5 min each) in Tris-buffered saline, 0.10% Tween 20 and incubated with IRDye 800CW Anti-Rabbit IgG and IRDye 700CW Anti-Mouse IgG (LI-COR) secondary antibodies (1:20,000 dilution) for 1 hour at room temperature. After washes, membranes were imaged in the LI-COR Odyssey® Fc Imaging System. […]

[1] = test system: MRL lymphoproliferation strain mice; experiment: MRL/lpr lupus model; details: mouse, in vivo

Chain of Fyn (P06241 whole entry): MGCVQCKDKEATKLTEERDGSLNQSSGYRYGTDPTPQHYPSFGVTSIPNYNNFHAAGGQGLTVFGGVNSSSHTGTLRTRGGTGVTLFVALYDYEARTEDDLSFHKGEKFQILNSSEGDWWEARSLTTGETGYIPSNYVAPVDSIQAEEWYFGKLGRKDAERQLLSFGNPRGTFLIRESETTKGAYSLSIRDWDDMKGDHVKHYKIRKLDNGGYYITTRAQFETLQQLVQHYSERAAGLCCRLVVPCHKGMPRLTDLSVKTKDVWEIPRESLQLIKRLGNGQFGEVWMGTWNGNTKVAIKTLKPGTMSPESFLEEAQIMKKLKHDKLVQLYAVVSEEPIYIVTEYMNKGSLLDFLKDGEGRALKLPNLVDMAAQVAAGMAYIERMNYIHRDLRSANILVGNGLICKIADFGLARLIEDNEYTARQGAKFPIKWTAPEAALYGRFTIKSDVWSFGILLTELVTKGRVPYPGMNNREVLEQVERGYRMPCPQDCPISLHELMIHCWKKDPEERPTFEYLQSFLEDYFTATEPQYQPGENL

remaining activity at 1 µM (Fyn): 99%
SMILES: C=CC(=O)N1CCCN(C(=O)c2cc(Sc3cnc(NC(=O)C4CC4)s3)c(C)cc2OC)C[C@H]1C [CPI-818]
phosphorylation of PLCγ1 (PLCγ1 phosphorylation): dose-dependently inhibited | lymphadenopathy [1]: inhibits | proteinuria [1]: inhibits
